Patent US6777431B2, “Non-convalent thrombin inhibitors” (Corvas International, Inc., priority 2001, dated 2004)
pIC50, pKi: −log10 of the molar value.

Key:
Trypsin = biological target: T1, Trypsin (Bos taurus, UniProt P00760); test: Trypsin chromogenic substrate assay (S-2222); format: biochemical; conditions: bovine pancreatic trypsin 0.5 nM, S-2222 250 μM, HBSA pH 7.5
T1 construct: Purified (3×-crystallized; TRL3) bovine pancreatic trypsin was obtained from Worthington Biochemical Corp; purchased Worthington Biochemical Corp. TRL3; host or cells: bovine pancreas
T1 sequence (P00760 24-246): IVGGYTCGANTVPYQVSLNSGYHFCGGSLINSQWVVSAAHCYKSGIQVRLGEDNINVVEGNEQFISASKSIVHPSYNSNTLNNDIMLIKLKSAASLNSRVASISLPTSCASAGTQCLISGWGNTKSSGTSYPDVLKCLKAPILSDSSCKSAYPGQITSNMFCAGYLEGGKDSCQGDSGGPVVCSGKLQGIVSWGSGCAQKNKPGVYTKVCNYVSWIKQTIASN
Description: (§1) The ability of compounds of the present invention to act as a selective inhibitor of thrombin activity was assessed by determining the concentration of test-compound which inhibited the activity of this enzyme by 50%, (IC50) or by determining the Ki value, and comparing this value to that determined for all or some of the following related serine proteases: recombinant tissue plasminogen activator (rt-PA), plasmin, activated protein C, chymotrypsin, factor Xa and trypsin. Ki is calculated from the IC50.
(§2) The buffer used for all assays was HBSA (10 mM HEPES, pH 7.5, 150 mM sodium chloride, 0.1% bovine serum albumin).
The assay for IC50 or Ki determinations was conducted by combining in appropriate wells of a Corning microtiter plate, 50 microliters of HBSA, 50 microliters of the test compound at a specified concentration (covering a broad concentration range) diluted in HBSA (or HBSA alone for V0 (uninhibited velocity) measurement), and 50 microliters of the enzyme diluted in HBSA. […] The initial velocity of chromogenic substrate hydrolysis was measured by the change in absorbance at 405 nm using a Thermo Max® Kinetic Microplate Reader over a 5 minute period in which less than 5% of the added substrate was utilized. […] Ki may be calculated from the IC50 value. […]

Thrombin = Thrombin (Homo sapiens, UniProt P00734); test: Thrombin (fIIa) chromogenic substrate assay (Pefachrome t-PA); format: biochemical; conditions: human a-thrombin 0.5 nM, Pefachrome t-PA 250 μM, 30 min preincubation, HBSA pH 7.5; Ki calculated from the IC50
Description: as §1, §2
The assay for IC50 or Ki determinations was conducted by combining in appropriate wells of a Corning microtiter plate, 50 microliters of HBSA, 50 microliters of the test compound at a specified concentration (covering a broad concentration range) diluted in HBSA (or HBSA alone for V0 (uninhibited velocity) measurement), and 50 microliters of the enzyme diluted in HBSA. Following a 30 minute incubation at ambient temperature, 50 microliters of the substrate at the concentrations specified below were added to the wells, yielding a final total volume of 200 microliters. The initial velocity of chromogenic substrate hydrolysis was measured by the change in absorbance at 405 nm using a Thermo Max® Kinetic Microplate Reader over a 5 minute period in which less than 5% of the added substrate was utilized. The concentration of added inhibitor which caused a 50% decrease in the initial rate of hydrolysis was defined as the IC50 value. Ki may be calculated from the IC50 value.
Enzyme activity was determined using the chromogenic substrate, Pefachrome t-PA (CH3SO2-D-hexahydrotyrosine-glycyl-L-Arginine-p-nitroaniline, obtained from Pentapharm Ltd.). The substrate was reconstituted in deionized water prior to use.
The initial velocity of Pefachrome t-PA hydrolysis was measured by the change in absorbance at 405 nm using a Thermo Max® Kinetic Microplate Reader over a 5 minute period in which less than 5% of the added substrate was utilized. The concentration of added inhibitor which caused a 50% decrease in the initial rate of hydrolysis was defined as the IC50 value. Ki was calculated from the IC50 value.

Compound	pIC50 (Trypsin)	pKi (Thrombin)
Cc1cnc(NCC(F)(F)c2ccccc2)c(=O)n1CCNc1ccncc1 [B]	–	≥ 7.00
Cc1cnc(NCC(F)(F)c2ccccc2)c(=O)n1CCCNc1ccncc1 [C]	–	≥ 7.00
Cc1cnc(NCCc2ccccc2)c(=O)n1CCCNc1ccncc1 [D]	–	6.52 to 7.00
Cc1ccc(NS(=O)(=O)Cc2ccc(Cl)cc2)c(=O)n1CCCNc1ccncc1 [F]	–	≥ 7.00
Cc1ccc(NS(=O)(=O)Cc2ccccc2)c(=O)n1CCCNc1ncnc2[nH]cnc12 [G]	–	6.52 to 7.00
Cc1ccc(NS(=O)(=O)Cc2ccc(Cl)cc2)c(=O)n1CCCNc1ccncc1F [K]	–	≥ 7.00
Cc1ccc(NS(=O)(=O)Cc2ccccc2)c(=O)n1CCCNc1ccnc2ccccc12 [L]	–	≥ 7.00
Cc1ccc(NS(=O)(=O)Cc2ccccc2)c(=O)n1CCCNc1ccncn1 [M]	–	≥ 7.00
Cc1cnc(NCCCc2ccccc2)c(=O)n1CCCNc1ccncc1 [O]	–	6.52 to 7.00
Cc1ccc(NS(=O)(=O)Cc2ccccc2)c(=O)n1CCCNc1cccc2ncccc12 [P]	–	6.52 to 7.00

Next, values leading:

pIC50 (Trypsin)	pKi (Thrombin)	Compound
5.60 to 6.52	≥ 7.00	Cc1ccc(NS(=O)(=O)Cc2ccccc2)c(=O)n1CCCNc1ccncc1 [A]
–	≥ 7.00	Cc1ccc(NS(=O)(=O)Cc2ccccc2)c(=O)n1CCCN(C)c1ccncc1 [E]
–	≥ 7.00	Cc1ccc(NS(=O)(=O)Cc2ccccc2)c(=O)n1CCCNc1ccc2ncccc2c1 [H]
–	≥ 7.00	Cc1ccc(NS(=O)(=O)Cc2ccccc2)c(=O)n1CCCNc1ccc2cc[nH]c2c1 [I]
–	≥ 7.00	Cc1ccc(NS(=O)(=O)Cc2ccccc2)c(=O)n1CCCNc1ccncc1F [J]
–	6.52 to 7.00	Cc1ccc(NS(=O)(=O)Cc2ccccc2)c(=O)n1CCCNc1ccc(N)nc1 [N]
–	5.60 to 6.52	Cc1ccc(NS(=O)(=O)Cc2ccccc2)c(=O)n1CCCn1ncc2ccc(N)cc21 [Q]
–	5.60 to 6.52	Cc1ccc(NS(=O)(=O)Cc2ccccc2)c(=O)n1CCCNc1cccc(N)n1 [R]
